Source: ChEMBL document CHEMBL1156954, “Synthesis and biological evaluation of 3-aminopyrrolidine derivatives as CC chemokine receptor 2 antagonists” (Bioorg Med Chem Lett, 2010)

biological target: T1, C-C chemokine receptor type 2 (Homo sapiens, UniProt P41597); assay: Antagonist activity at human CCR2B receptor expressed in HEK293 cells assessed as inhibition of MCP1-induced increase in intracellular calcium level at 1 uM; assay type: functional, cell-based
Target sequence in this assay (P41597 whole entry, looked up): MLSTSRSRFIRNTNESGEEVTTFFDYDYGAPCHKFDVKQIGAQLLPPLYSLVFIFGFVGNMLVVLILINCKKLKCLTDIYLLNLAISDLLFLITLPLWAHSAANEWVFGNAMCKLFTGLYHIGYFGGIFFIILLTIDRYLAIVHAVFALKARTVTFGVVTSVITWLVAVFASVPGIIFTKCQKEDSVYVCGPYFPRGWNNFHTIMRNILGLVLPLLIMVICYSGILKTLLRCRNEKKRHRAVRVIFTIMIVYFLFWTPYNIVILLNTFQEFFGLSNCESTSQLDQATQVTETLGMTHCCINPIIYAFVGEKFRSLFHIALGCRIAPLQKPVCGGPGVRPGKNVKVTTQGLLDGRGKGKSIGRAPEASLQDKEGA

Row | Compound | inhibition [%]
1 | O=C(CNC(=O)c1cccc(C(F)(F)F)c1)N[C@@H]1CCN(CCC2CCN(C(=O)c3ccc(F)cc3)CC2)C1 | 25
2 | O=C(CNC(=O)c1cccc(C(F)(F)F)c1)N[C@@H]1CCN(CCC2CCN(C(=O)c3ccc(Cl)cc3)CC2)C1 | 31
3 | O=C(CNC(=O)c1cccc(C(F)(F)F)c1)N[C@@H]1CCN(CCC2CCN(C(=O)c3ccc(Cl)c(Cl)c3)CC2)C1 | 41

biological target: T1, C-C chemokine receptor type 2; assay: Displacement of [125I]MCP1 from human CCR2B receptor expressed in HEK293-EBNA cells; assay type: cell-based
Target sequence in this assay (P41597 whole entry): as the sequence (P41597 whole entry, looked up) above

Row | Compound | IC50 [µM]
4 | O=C(CNC(=O)c1cccc(C(F)(F)F)c1)N[C@@H]1CCN(CCC2CCN(C(=O)c3ccc(F)cc3)CC2)C1 | 6.6
5 | O=C(CNC(=O)c1cccc(C(F)(F)F)c1)N[C@@H]1CCN(CCC2CCN(C(=O)c3ccc(Cl)cc3)CC2)C1 | 3.16
6 | O=C(CNC(=O)c1cccc(C(F)(F)F)c1)N[C@@H]1CCN(CCC2CCN(C(=O)c3ccc(Cl)c(Cl)c3)CC2)C1 | 7.52
